Data taken from US5157020A, “Synthetic senescent cell antigen” (Research Corporation Tech., Inc., priority 1990, dated 1992).

Molecular target: T1, band 3 (Homo sapiens, UniProt P02730)
T1 construct: endogenous in cells; host or cells: stored red blood cells (middle-aged cells stored in Alsever's for 5 wks at 4 C)
T1 sequence (P02730 1-911): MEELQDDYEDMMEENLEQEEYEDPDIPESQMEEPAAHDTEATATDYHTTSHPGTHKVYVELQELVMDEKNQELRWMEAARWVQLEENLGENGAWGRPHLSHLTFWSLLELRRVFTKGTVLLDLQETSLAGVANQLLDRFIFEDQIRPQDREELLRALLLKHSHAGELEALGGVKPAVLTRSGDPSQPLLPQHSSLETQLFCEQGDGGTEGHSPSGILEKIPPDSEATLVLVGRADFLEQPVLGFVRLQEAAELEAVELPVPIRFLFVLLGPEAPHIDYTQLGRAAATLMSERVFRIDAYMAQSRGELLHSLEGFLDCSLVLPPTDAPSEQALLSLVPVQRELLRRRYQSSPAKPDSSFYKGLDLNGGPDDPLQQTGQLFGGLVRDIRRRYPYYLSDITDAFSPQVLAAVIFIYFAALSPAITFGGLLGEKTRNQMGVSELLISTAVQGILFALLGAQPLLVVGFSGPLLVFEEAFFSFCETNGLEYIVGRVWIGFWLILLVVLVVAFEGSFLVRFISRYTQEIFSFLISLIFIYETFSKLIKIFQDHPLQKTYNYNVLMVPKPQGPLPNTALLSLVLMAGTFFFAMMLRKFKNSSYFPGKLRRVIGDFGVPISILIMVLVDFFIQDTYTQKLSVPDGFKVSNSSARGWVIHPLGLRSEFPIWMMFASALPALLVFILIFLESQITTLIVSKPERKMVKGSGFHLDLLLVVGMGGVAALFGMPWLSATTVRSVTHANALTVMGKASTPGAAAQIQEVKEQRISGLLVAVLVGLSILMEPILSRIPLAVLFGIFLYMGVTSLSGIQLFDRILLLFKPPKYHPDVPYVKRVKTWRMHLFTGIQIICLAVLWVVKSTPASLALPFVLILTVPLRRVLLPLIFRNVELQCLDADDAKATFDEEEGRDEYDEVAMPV
Test: DIDS treatment of stored cells prior to incubation with senescent cell IgG
Format: cell-based
Settings: stored cells incubated with 25 uM DIDS for 90 min at room temperature before senescent cell IgG
Method: Since DNP and DIDS modification of ANION 1 and COOH abolished inhibition of senescent cell IgG binding, we reasoned that DIDS binding to band 3 lysines in whole cells should interfere with senescent cell IgG binding. Stored cells were incubated with 25 uM DIDS for 90 min at room temperature prior to incubation with senescent cell IgG. […] Another possibility is that DIDS binding perturbs the configuration of the molecule so that the binding site is altered. However, since our studies indicate that the actual antigenic determinants reside on ANION 1 and COOH (Example 1), it is unlikely that a distant perturbation of the antigenic site by DIDS binding is responsible. It is more likely that a DIDS reactive lysine lies in or near enough to the antigenic site to cause steric hindrance.

O=S(=O)(O)c1cc(N=C=S)ccc1CCc1ccc(N=C=S)cc1S(=O)(=O)O [DIDS, diisothiocyano dihydrostilbene disulphonate]
inhibition of senescent cell IgG binding: 54±3%
